Source: BindingDB's records for patent US20240343694 (Korea Reserarch Institute of Chemical Technology, 2024)

Tests used:
[1] = biological target: T1, Epidermal growth factor receptor [1-763,'FHEA',764-1210] (UniProt P00533); assay: Inhibitory Activity of Compounds Against EGFR Mutant Enzyme
T1 construct: 1-763,'FHEA',764-1210
Description: (§1) The activity of the compounds of the present invention against EGFR mutant enzymes was measured using the HTRF system purchased from Cisbio as follows. For an EGFR mutant enzyme, the EGFR del19 enzyme was a recombinant protein purchased from Carna Biosciences, and the EGFR A763_Y764insFHEA enzyme was a recombinant protein purchased from SignalChem, respectively.The composition of the assay buffer used for activity measurement was 50 mM tris-HCl pH 7.5, 100 mM NaCl, 7.5 mM MgCl2, 3 mM KCl, 0.01% tween 20, 0.1% BSA, and 1 mM DTT. An enzymatic reaction was performed using a peptide substrate labeled with ATP at a concentration of […] and biotin at a concentration of […]. The analysis of the inhibitory effect of the compounds on EGFR activity was performed according to the following method.Component 1:4 μL of EGFR mutant enzymeComponent 2:2 μL of compound solutionComponent 3:4 μL of ATP and a biotin labeled peptideThe enzyme reaction begins by first mixing component 1 and component 2 and then adding component 3 thereto. After the reaction at 37° C. for 2 hours, […] of a measurement solution consisting of streptavidin-XL665 and a europium-labeled anti-phosphotyrosine antibody purchased from Cisbio was added to the enzyme reaction solution and reacted at room temperature for 1 hour. Finally, the ratio of fluorescence values at 615 nm and 665 nm was measured using Perkin-Elmer's Envision instrument to calculate enzyme activity and confirm the inhibitory ability of the compounds.

[2] = biological target: T2, Epidermal growth factor receptor [DEL746-750] (Homo sapiens, UniProt P00533); assay: as above
T2 construct: gene EGFR
Description: as §1

[3] = biological target: T3, Receptor tyrosine-protein kinase erbB-2 [1-775,'YVMA',776-1255] (Homo sapiens, UniProt P04626); assay: Inhibitory Activity of Compounds Against HER2 A775_G776insYVMA mutant enzyme
T3 construct: 1-775,'YVMA',776-1255
Description: The activity of the compounds of the present invention against HER mutant enzymes was measured using the HTRF system purchased by Cisbio as follows. As a HER2 mutant enzyme, the HER2 A775_G776insYVMA mutant enzyme was used by purchasing a recombinant protein provided by Carna Biosciences.The composition of the assay buffer used for activity measurement was 50 mM tris-HCl pH 7.5, 100 mM NaCl, 7.5 mM MgCl2, 3 mM KCl, 0.01% tween 20, 0.1% BSA, and 1 mM DTT. In addition thereto, the enzymatic reaction was performed using a peptide substrate labeled with ATP at a concentration of […] and biotin at a concentration of […]. The analysis of the activity inhibitory effect of the compounds on HER2 A775_G776insYVMA mutation was performed according to the following method.Component 1:4 μL of HER2 A775_G776insYVMA mutant enzymeComponent 2:2 μL of compound solutionComponent 3:4 μL of ATP and a biotin labeled peptideThe enzyme reaction begins by first mixing component 1 and component 2 and then adding component 3 thereto. After the reaction at 37° C. for 2 hours, […] of a measurement solution consisting of streptavidin-XL665 and a europium-labeled anti-phosphotyrosine antibody purchased from Cisbio was added to the enzyme reaction solution and reacted at room temperature for 1 hour. Finally, the ratio of fluorescence values at 615 nm and 665 nm was measured using Perkin-Elmer's Envision equipment to calculate enzyme activity and confirm the inhibitory ability of the compounds.

T2 sequence (P00533 with tags, fused parts or gaps DEL746-750 limits assumed, stated change not applied): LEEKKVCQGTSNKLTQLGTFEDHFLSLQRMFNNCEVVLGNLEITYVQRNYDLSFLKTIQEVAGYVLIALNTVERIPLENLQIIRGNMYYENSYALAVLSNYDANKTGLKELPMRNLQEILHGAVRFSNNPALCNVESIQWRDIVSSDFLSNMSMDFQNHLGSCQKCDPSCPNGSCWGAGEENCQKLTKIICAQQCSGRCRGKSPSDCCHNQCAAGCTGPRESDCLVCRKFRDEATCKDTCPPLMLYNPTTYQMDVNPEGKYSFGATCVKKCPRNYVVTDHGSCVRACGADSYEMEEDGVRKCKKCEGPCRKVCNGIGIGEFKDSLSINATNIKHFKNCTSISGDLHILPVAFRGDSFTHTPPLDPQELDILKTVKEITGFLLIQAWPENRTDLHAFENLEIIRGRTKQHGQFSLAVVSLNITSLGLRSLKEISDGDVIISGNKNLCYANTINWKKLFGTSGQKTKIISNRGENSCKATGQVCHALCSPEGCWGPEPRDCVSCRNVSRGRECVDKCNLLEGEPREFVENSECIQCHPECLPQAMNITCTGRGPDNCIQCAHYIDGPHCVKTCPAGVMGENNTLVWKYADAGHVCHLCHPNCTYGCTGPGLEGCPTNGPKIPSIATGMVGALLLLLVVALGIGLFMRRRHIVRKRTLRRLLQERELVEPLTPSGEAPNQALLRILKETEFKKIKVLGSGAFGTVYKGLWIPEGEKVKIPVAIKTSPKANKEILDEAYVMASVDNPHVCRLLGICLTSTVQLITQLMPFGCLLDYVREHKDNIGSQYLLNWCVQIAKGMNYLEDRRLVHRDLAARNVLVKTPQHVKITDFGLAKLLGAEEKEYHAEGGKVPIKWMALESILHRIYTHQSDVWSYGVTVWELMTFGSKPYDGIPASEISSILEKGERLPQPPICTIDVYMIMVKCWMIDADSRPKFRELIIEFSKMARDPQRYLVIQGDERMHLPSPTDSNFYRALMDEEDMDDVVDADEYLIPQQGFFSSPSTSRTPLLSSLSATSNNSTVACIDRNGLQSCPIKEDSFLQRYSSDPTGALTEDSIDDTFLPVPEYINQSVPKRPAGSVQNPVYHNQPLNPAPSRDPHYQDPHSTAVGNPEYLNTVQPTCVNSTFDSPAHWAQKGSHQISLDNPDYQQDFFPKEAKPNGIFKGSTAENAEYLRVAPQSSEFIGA
T3 sequence (P04626 with tags, fused parts or gaps INS775YVMA limits assumed): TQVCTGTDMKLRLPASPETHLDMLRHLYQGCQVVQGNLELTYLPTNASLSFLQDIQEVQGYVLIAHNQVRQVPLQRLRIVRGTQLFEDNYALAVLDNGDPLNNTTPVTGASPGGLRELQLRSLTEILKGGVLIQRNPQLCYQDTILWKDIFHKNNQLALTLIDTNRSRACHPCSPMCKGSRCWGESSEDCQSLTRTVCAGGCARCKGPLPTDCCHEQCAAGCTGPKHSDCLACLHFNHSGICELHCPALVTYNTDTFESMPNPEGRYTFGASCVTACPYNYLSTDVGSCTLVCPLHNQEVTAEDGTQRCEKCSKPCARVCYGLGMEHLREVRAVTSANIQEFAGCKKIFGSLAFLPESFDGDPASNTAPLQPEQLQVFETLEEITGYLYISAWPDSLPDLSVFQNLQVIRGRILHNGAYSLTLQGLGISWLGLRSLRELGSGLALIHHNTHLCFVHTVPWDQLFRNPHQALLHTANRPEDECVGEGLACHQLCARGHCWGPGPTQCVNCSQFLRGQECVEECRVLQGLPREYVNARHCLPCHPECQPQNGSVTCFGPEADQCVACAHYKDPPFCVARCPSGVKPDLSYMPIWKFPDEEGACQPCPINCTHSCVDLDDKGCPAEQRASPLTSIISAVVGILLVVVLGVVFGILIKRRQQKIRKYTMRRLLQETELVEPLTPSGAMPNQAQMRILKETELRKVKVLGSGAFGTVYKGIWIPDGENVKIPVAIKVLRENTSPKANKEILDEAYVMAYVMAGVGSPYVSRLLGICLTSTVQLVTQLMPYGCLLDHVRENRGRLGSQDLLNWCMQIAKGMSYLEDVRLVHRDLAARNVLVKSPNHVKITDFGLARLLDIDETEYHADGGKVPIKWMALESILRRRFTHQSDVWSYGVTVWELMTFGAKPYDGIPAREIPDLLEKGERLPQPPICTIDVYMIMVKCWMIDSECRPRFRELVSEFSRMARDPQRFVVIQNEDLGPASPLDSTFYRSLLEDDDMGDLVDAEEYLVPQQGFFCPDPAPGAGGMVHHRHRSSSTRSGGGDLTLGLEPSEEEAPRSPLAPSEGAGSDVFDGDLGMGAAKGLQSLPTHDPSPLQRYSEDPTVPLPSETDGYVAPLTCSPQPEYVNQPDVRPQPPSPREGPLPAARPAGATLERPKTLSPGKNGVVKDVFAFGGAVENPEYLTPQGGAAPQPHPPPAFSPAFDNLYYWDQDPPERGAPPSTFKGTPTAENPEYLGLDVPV
T1 sequence (P00533 with tags, fused parts or gaps INS763FHEA limits assumed): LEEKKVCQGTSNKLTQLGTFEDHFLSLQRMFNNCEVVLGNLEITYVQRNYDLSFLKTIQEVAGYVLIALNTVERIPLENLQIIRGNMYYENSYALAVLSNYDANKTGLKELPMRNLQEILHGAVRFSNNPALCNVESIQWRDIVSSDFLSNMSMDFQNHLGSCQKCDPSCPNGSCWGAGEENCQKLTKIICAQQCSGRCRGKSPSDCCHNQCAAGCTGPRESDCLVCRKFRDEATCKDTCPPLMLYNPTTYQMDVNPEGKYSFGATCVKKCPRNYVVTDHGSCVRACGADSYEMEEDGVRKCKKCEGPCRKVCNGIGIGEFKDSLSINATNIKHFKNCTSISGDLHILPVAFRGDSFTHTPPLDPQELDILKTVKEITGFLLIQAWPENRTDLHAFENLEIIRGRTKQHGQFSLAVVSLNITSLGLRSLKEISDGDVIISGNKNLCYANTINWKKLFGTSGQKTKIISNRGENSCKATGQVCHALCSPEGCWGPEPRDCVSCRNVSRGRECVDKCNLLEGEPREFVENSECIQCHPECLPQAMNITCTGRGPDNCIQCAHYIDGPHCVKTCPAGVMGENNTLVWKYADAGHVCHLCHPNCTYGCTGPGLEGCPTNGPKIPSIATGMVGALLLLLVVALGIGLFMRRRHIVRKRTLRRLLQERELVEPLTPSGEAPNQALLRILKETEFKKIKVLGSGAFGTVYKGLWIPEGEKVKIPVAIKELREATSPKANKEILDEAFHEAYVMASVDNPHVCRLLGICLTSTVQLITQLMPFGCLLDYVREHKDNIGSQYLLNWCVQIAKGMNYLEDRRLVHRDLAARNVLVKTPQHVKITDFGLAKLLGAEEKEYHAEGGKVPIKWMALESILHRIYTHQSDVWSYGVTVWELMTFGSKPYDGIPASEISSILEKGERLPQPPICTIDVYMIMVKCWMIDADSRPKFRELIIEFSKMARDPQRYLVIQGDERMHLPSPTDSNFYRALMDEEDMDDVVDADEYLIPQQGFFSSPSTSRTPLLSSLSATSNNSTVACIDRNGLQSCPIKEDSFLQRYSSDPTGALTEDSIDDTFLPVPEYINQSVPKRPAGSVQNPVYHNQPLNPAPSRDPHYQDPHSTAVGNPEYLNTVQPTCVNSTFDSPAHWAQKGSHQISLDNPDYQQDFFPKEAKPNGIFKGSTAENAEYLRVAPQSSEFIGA

SMILES | IC50 [1] [nM] | IC50 [2] [nM] | IC50 [3] [nM]
Cc1ccc(S(=O)(=O)Nc2ccccc2Nc2nc(Cl)ncc2F)cc1 [US20240343694, Example 23] | 3 | < 1 | 30
Cc1cnc(Cl)nc1Nc1ccccc1NS(C)(=O)=O [US20240343694, Example 24] | 3 | < 1 | 27
Cc1ccc(S(=O)(=O)Nc2ccccc2Nc2nc(Cl)ncc2C)cc1 [US20240343694, Example 25] | < 1 | < 1 | 6
CCS(=O)(=O)Nc1ccccc1Nc1nc(Cl)ncc1C [US20240343694, Example 27] | 9 | 3 | 30
C=CC(=O)Nc1cc(N)c(OC)cc1N(C)CCN1CCCC1 [US20240343694, Example 29] | < 1 | < 1 | 5
C=CC(=O)Nc1cc(N)c(OC)cc1OCCN1CCCC1 [US20240343694, Example 30] | < 1 | < 1 | 4
C=CC(=O)Nc1cc(N)c(OC)cc1N(C)CCN1CCCCC1 [US20240343694, Example 31] | < 1 | < 1 | 0.3
C=CC(=O)Nc1cc(Nc2ncc(Cl)c(Nc3ccccc3NS(C)(=O)=O)n2)c(OC)cc1N(C)CCN(C)C(=O)OCc1ccccc1 [US20240343694, Example 35] | 3 | < 1 | 27
COc1cc(N2CCOCC2)c(N)cc1Nc1ncc(Cl)c(Nc2ccccc2NS(C)(=O)=O)n1 [US20240343694, Example 36] | 1 | < 1 | 10
COc1cc(N2CCN(C)CC2)c(N)cc1Nc1ncc(Cl)c(Nc2ccccc2NS(C)(=O)=O)n1 [US20240343694, Example 37] | 2 | < 1 | 26
CCS(=O)(=O)N(C)c1ccccc1Nc1nc(Cl)ncc1Cl [US20240343694, Example 40] | 1 | < 1 | 4
CCN(c1ccccc1Nc1nc(Cl)ncc1Cl)S(C)(=O)=O [US20240343694, Example 41] | 1 | < 1 | 9
Cc1ccc(Nc2nc(Cl)ncc2Cl)c(N(C)S(C)(=O)=O)c1C [US20240343694, Example 53] |  |  | 10

Next, values leading:

IC50 [1] [nM] | IC50 [2] [nM] | IC50 [3] [nM] | SMILES
200 | 4 | 80 | CCCS(=O)(=O)Nc1ccccc1Nc1nc(Cl)ncc1C [US20240343694, Example 26]
8 | < 1 | 70 | Cc1cnc(Cl)nc1Nc1ccccc1NS(=O)(=O)c1ccccc1 [US20240343694, Example 28]
1 | < 1 | 8 | C=CC(=O)Nc1cc(N)c(OC)cc1N(C)CCN(C(=O)OCc1ccccc1)C(C)C [US20240343694, Example 32]
< 1 | < 1 | 7 | C=CC(=O)Nc1cc(Nc2ncc(Cl)c(Nc3ccccc3NS(C)(=O)=O)n2)c(OC)cc1N(C)CCN(C(=O)OCc1ccccc1)C(C)C [US20240343694, Example 33]
1 | < 1 | 20 | C=CC(=O)Nc1cc(N)c(OC)cc1N(C)CCN(C)C(=O)OCc1ccccc1 [US20240343694, Example 34]
2 | < 1 | 14 | COc1cc(N(C)CCN(C)C)c(N)cc1Nc1ncc(Cl)c(Nc2ccccc2NS(C)(=O)=O)n1 [US20240343694, Example 38]
< 1 | < 1 | 8 | CN(c1ccccc1Nc1nc(Cl)ncc1Cl)S(C)(=O)=O [US20240343694, Example 39]
 |  | 3 | CC(C)OC(=O)c1cnc(Cl)nc1Nc1cccc2c1N(S(C)(=O)=O)CCC2 [US20240343694, Example 62]
 |  | < 1 | C=CC(=O)Nc1cc(N)c(OC)cc1N(C)CCN1CCOCC1 [US20240343694, Example 63]
